Data taken from ChEMBL document CHEMBL3784929, “Pharmacokinetics of valproic acid in volunteers after a single dose study” (Biopharm Drug Dispos, 1985).

Assays:
Type in all cases: ADME, organism-based
[1] = Total serum concentration in healthy human (6 volunteers) at 1 g, po administered as single dose measured after 6 hrs by gas liquid chromatography; conditions: read-out: Drug uptake
[2] = Total serum concentration in healthy human (6 volunteers) at 1 g, po administered as single dose measured after 8 hrs by gas liquid chromatography; conditions: read-out: Drug uptake
[3] = Total serum concentration in healthy human (6 volunteers) at 1 g, po administered as single dose measured after 10 hrs by gas liquid chromatography; conditions: read-out: Drug uptake
[4] = Total serum concentration in healthy human (6 volunteers) at 1 g, po administered as single dose measured after 12 hrs by gas liquid chromatography; conditions: read-out: Drug uptake
[5] = Total serum concentration in healthy human (6 volunteers) at 1 g, po administered as single dose measured after 14 hrs by gas liquid chromatography; conditions: read-out: Drug uptake
[6] = Total serum concentration in healthy human (6 volunteers) at 1 g, po administered as single dose measured after 24 hrs by gas liquid chromatography; conditions: read-out: Drug uptake
[7] = Total serum concentration in healthy human (6 volunteers) at 1 g, po administered as single dose measured after 30 hrs by gas liquid chromatography; conditions: read-out: Drug uptake
[8] = Total serum concentration in healthy human (6 volunteers) at 1 g, po administered as single dose measured after 39 hrs by gas liquid chromatography; conditions: read-out: Drug uptake
[9] = Total serum concentration in healthy human (6 volunteers) at 1 g, po administered as single dose measured after 48 hrs by gas liquid chromatography; conditions: read-out: Drug uptake
[10] = test system: Serum; experiment: Unbound serum concentration in healthy human (6 volunteers) at 1 g, po administered as single dose measured after 0.33 hrs by enzyme multiple immunotechnique; conditions: in vivo
[11] = test system: Serum; experiment: Unbound serum concentration in healthy human (6 volunteers) at 1 g, po administered as single dose measured after 0.66 hrs by enzyme multiple immunotechnique; conditions: in vivo
[12] = test system: Serum; experiment: Unbound serum concentration in healthy human (6 volunteers) at 1 g, po administered as single dose measured after 1 hr by enzyme multiple immunotechnique; conditions: in vivo
[13] = test system: Serum; experiment: Unbound serum concentration in healthy human (6 volunteers) at 1 g, po administered as single dose measured after 1.5 hrs by enzyme multiple immunotechnique; conditions: in vivo
[14] = test system: Serum; experiment: Unbound serum concentration in healthy human (6 volunteers) at 1 g, po administered as single dose measured after 2 hrs by enzyme multiple immunotechnique; conditions: in vivo
[15] = test system: Serum; experiment: Unbound serum concentration in healthy human (6 volunteers) at 1 g, po administered as single dose measured after 3 hrs by enzyme multiple immunotechnique; conditions: in vivo
[16] = test system: Serum; experiment: Unbound serum concentration in healthy human (6 volunteers) at 1 g, po administered as single dose measured after 4 hrs by enzyme multiple immunotechnique; conditions: in vivo
[17] = test system: Serum; experiment: Unbound serum concentration in healthy human (6 volunteers) at 1 g, po administered as single dose measured after 5 hrs by enzyme multiple immunotechnique; conditions: in vivo
[18] = test system: Serum; experiment: Unbound serum concentration in healthy human (6 volunteers) at 1 g, po administered as single dose measured after 6 hrs by enzyme multiple immunotechnique; conditions: in vivo
[19] = test system: Serum; experiment: Unbound serum concentration in healthy human (6 volunteers) at 1 g, po administered as single dose measured after 8 hrs by enzyme multiple immunotechnique; conditions: in vivo
[20] = test system: Serum; experiment: Unbound serum concentration in healthy human (6 volunteers) at 1 g, po administered as single dose measured after 10 hrs by enzyme multiple immunotechnique; conditions: in vivo
[21] = test system: Serum; experiment: Unbound serum concentration in healthy human (6 volunteers) at 1 g, po administered as single dose measured after 12 hrs by enzyme multiple immunotechnique; conditions: in vivo
[22] = test system: Serum; experiment: Unbound serum concentration in healthy human (6 volunteers) at 1 g, po administered as single dose measured after 14 hrs by enzyme multiple immunotechnique; conditions: in vivo
[23] = test system: Serum; experiment: Unbound serum concentration in healthy human (6 volunteers) at 1 g, po administered as single dose measured after 24 hrs by enzyme multiple immunotechnique; conditions: in vivo
[24] = test system: Serum; experiment: Unbound serum concentration in healthy human (6 volunteers) at 1 g, po administered as single dose measured after 30 hrs by enzyme multiple immunotechnique; conditions: in vivo
[25] = test system: Serum; experiment: Unbound serum concentration in healthy human (6 volunteers) at 1 g, po administered as single dose measured after 39 hrs by enzyme multiple immunotechnique; conditions: in vivo
[26] = test system: Serum; experiment: Unbound serum concentration in healthy human (6 volunteers) at 1 g, po administered as single dose measured after 48 hrs by enzyme multiple immunotechnique; conditions: in vivo
[27] = Fraction unbound in healthy human (6 volunteers) serum at 1 g, po administered as single dose measured after 0.33 hrs
[28] = Fraction unbound in healthy human (6 volunteers) serum at 1 g, po administered as single dose measured after 0.66 hrs
[29] = Fraction unbound in healthy human (6 volunteers) serum at 1 g, po administered as single dose measured after 1 hr
[30] = Fraction unbound in healthy human (6 volunteers) serum at 1 g, po administered as single dose measured after 1.5 hrs
[31] = Fraction unbound in healthy human (6 volunteers) serum at 1 g, po administered as single dose measured after 2 hrs
[32] = Fraction unbound in healthy human (6 volunteers) serum at 1 g, po administered as single dose measured after 3 hrs
[33] = Fraction unbound in healthy human (6 volunteers) serum at 1 g, po administered as single dose measured after 4 hrs
[34] = Fraction unbound in healthy human (6 volunteers) serum at 1 g, po administered as single dose measured after 5 hrs
[35] = Fraction unbound in healthy human (6 volunteers) serum at 1 g, po administered as single dose measured after 6 hrs
[36] = Fraction unbound in healthy human (6 volunteers) serum at 1 g, po administered as single dose measured after 8 hrs
[37] = Fraction unbound in healthy human (6 volunteers) serum at 1 g, po administered as single dose measured after 10 hrs
[38] = Fraction unbound in healthy human (6 volunteers) serum at 1 g, po administered as single dose measured after 12 hrs
[39] = Fraction unbound in healthy human (6 volunteers) serum at 1 g, po administered as single dose measured after 14 hrs
[40] = Tmax in healthy human (6 volunteers) at 1 g, po administered as single dose by gas liquid chromatography; conditions: in vivo
[41] = Cmax in healthy human (6 volunteers) at 1 g, po administered as single dose by gas liquid chromatography; parameters: dose 1 g, route oral; conditions: in vivo
[42] = Terminal half life in healthy human (6 volunteers) at 1 g, po administered as single dose by gas liquid chromatography; conditions: in vivo, read-out: beta t1/2 (converted)
[43] = Drug metabolism in healthy human (6 volunteers) assessed as excretion of valproic acid glucuronide in urine at 1 g, po administered as single dose measured upto 48 hrs by gas liquid chromatography; conditions: in vivo
[44] = Total AUC in healthy human (6 volunteers) at 1 g, po administered as single dose by gas liquid chromatography; parameters: dose 1 g, time AUCmax, route oral; conditions: in vivo
[45] = test system: Homo sapiens; experiment: fAUC in healthy human (6 volunteers) at 1 g, po administered as single dose by gas liquid chromatography; conditions: in vivo
[46] = Fraction unbound in healthy human (6 volunteers) serum assessed as ratio of fAUC to total AUC at 1 g, po administered as single dose by gas liquid chromatography
[47] = Fraction unbound in healthy human (6 volunteers) serum at 1 g, po administered as single dose
[48] = Total serum concentration in healthy human (6 volunteers) at 1 g, po administered as single dose measured after 0.33 hrs by gas liquid chromatography; conditions: read-out: Drug uptake
[49] = Total serum concentration in healthy human (6 volunteers) at 1 g, po administered as single dose measured after 0.66 hrs by gas liquid chromatography; conditions: read-out: Drug uptake
[50] = Total serum concentration in healthy human (6 volunteers) at 1 g, po administered as single dose measured after 1 hr by gas liquid chromatography; conditions: read-out: Drug uptake
[51] = Total serum concentration in healthy human (6 volunteers) at 1 g, po administered as single dose measured after 1.5 hrs by gas liquid chromatography; conditions: read-out: Drug uptake
[52] = Total serum concentration in healthy human (6 volunteers) at 1 g, po administered as single dose measured after 2 hrs by gas liquid chromatography; conditions: read-out: Drug uptake
[53] = Total serum concentration in healthy human (6 volunteers) at 1 g, po administered as single dose measured after 3 hrs by gas liquid chromatography; conditions: read-out: Drug uptake
[54] = Total serum concentration in healthy human (6 volunteers) at 1 g, po administered as single dose measured after 4 hrs by gas liquid chromatography; conditions: read-out: Drug uptake
[55] = Total serum concentration in healthy human (6 volunteers) at 1 g, po administered as single dose measured after 5 hrs by gas liquid chromatography; conditions: read-out: Drug uptake

CCCC(CCC)C(=O)[O-].[Na+] [VALPROATE SODIUM]
concentration at 6 h [1]: 85.9 µg/mL | concentration at 8 h [2]: 66.9 µg/mL | concentration at 10 h [3]: 61.4 µg/mL | concentration at 12 h [4]: 54.1 µg/mL | concentration at 14 h [5]: 47500 ng/mL | concentration at 24 h [6]: 33300 ng/mL | concentration at 30 h [7]: 23400 ng/mL | concentration at 39 h [8]: 15300 ng/mL | concentration at 48 h [9]: 10600 ng/mL | Drug uptake(free) [10]: 2.1 µg/mL | Drug uptake(free) [11]: 4.9 µg/mL | Drug uptake(free) [12]: 5.3 µg/mL | Drug uptake(free) [13]: 4.3 µg/mL | Drug uptake(free) [14]: 6.1 µg/mL | Drug uptake(free) [15]: 4.7 µg/mL | Drug uptake(free) [16]: 4.6 µg/mL | Drug uptake(free) [17]: 3.6 µg/mL | Drug uptake(free) [18]: 3.8 µg/mL | Drug uptake(free) [19]: 3.9 µg/mL | Drug uptake(free) [20]: 2.7 µg/mL | Drug uptake(free) [21]: 1.9 µg/mL | Drug uptake(free) [22]: 1.2 µg/mL | Drug uptake(free) [23]: 0 µg/mL | Drug uptake(free) [24]: 0 µg/mL | Drug uptake(free) [25]: 0 µg/mL | Drug uptake(free) [26]: 0 µg/mL | fraction unbound at 0.33 h [27]: 0.04 | fraction unbound at 0.66 h [28]: 0.052 | fraction unbound at 1 h [29]: 0.051 | fraction unbound at 1.5 h [30]: 0.042 | fraction unbound at 2 h [31]: 0.058 | fraction unbound at 3 h [32]: 0.049 | fraction unbound at 4 h [33]: 0.049 | fraction unbound at 5 h [34]: 0.04 | fraction unbound at 6 h [35]: 0.044 | fraction unbound at 8 h [36]: 0.059 | fraction unbound at 10 h [37]: 0.046 | fraction unbound at 12 h [38]: 0.037 | fraction unbound at 14 h [39]: 0.026 | Tmax [40]: 2 h | Cmax [41]: 108 µg/mL | half-life [42]: 892 min | Drug metabolism [43]: 176.6 mg | AUC [44]: 2120 µg·h/mL | fAUC [45]: 84.2 µg·h/mL | fraction unbound [46]: 0.041 | fraction unbound [47]: 0.049 | concentration at 0.33 h [48]: 52.3 µg/mL | concentration at 0.66 h [49]: 95.2 µg/mL | concentration at 1 h [50]: 105 µg/mL | concentration at 1.5 h [51]: 103 µg/mL | concentration at 2 h [52]: 105 µg/mL | concentration at 3 h [53]: 96.3 µg/mL | concentration at 4 h [54]: 92.9 µg/mL | concentration at 5 h [55]: 88.6 µg/mL
